Results taken from the supplement of paper PMC13380429.

Legend:
Details in all cases: 72 h
Vero E6 [1] = assay: drug sensitivity score (DSS) for viability; higher = more toxic; extreme values may be limits of the assay
Caco-2 [2] = assay: as above
HepG2 [3] = assay: as above
Calu-3 [4] = assay: as above
U2OS [5] = assay: as above
Vero E6 [6] = assay: relative viability EC50 (midpoint between 100% and the lowest measured viability); higher = less toxic
Caco-2 [7] = assay: as above
HepG2 [8] = assay: as above
Calu-3 [9] = assay: as above
U2OS [10] = assay: as above
Vero E6 [11] = assay: cell viability relative to DMSO; higher = less toxic
Caco-2 [12] = assay: as above
HepG2 [13] = assay: as above
Calu-3 [14] = assay: as above
U2OS [15] = assay: as above

SMILES | drug sensitivity score (Vero E6 [1]) | drug sensitivity score (Caco-2 [2]) | drug sensitivity score (HepG2 [3]) | drug sensitivity score (Calu-3 [4]) | drug sensitivity score (U2OS [5]) | relative viability EC50 (Vero E6 [6]) [µM] | relative viability EC50 (Caco-2 [7]) [µM] | relative viability EC50 (HepG2 [8]) [µM] | relative viability EC50 (Calu-3 [9]) [µM] | relative viability EC50 (U2OS [10]) [µM] | cell viability (Vero E6 [11]; 1 nM) [%] | cell viability (Vero E6 [11]; 10 nM) [%] | cell viability (Vero E6 [11]; 100 nM) [%] | cell viability (Vero E6 [11]; 1000 nM) [%] | cell viability (Vero E6 [11]; 10000 nM) [%] | cell viability (Caco-2 [12]; 1 nM) [%] | cell viability (Caco-2 [12]; 10 nM) [%] | cell viability (Caco-2 [12]; 100 nM) [%] | cell viability (Caco-2 [12]; 1000 nM) [%] | cell viability (Caco-2 [12]; 10000 nM) [%] | cell viability (HepG2 [13]; 1 nM) [%] | cell viability (HepG2 [13]; 10 nM) [%] | cell viability (HepG2 [13]; 100 nM) [%] | cell viability (HepG2 [13]; 1000 nM) [%] | cell viability (HepG2 [13]; 10000 nM) [%] | cell viability (Calu-3 [14]; 1 nM) [%] | cell viability (Calu-3 [14]; 10 nM) [%] | cell viability (Calu-3 [14]; 100 nM) [%] | cell viability (Calu-3 [14]; 1000 nM) [%] | cell viability (Calu-3 [14]; 10000 nM) [%] | cell viability (U2OS [15]; 1 nM) [%] | cell viability (U2OS [15]; 10 nM) [%] | cell viability (U2OS [15]; 100 nM) [%] | cell viability (U2OS [15]; 1000 nM) [%] | cell viability (U2OS [15]; 10000 nM) [%]
CCc1cc(C(N)=S)ccn1 [ethionamide] | 0 | 0 | 0 | 0 | 0 | > 10 | > 10 | > 10 | > 10 | > 10 | 96.7 | 101 | 101 | 91.5 | 99.7 | 95.7 | 92.7 | 96.5 | 92.6 | 102 | 100 | 90.6 | 97.9 | 102 | 102 | 90.8 | 92.2 | 98.7 | 93 | 95.7 | 97.8 | 94 | 97.1 | 94.7 | 96.3
CCOC(=O)c1ccc(O)cc1 [ethyl-paraben] | 0 | 0 | 0 | 0 | 0 | > 10 | > 10 | > 10 | > 10 | > 10 | 102 | 99.7 | 98.9 | 104 | 99.8 | 101 | 94.3 | 101 | 99.2 | 100 | 108 | 102 | 101 | 94.7 | 97.8 | 96.6 | 93 | 106 | 97.3 | 92 | 96.3 | 97 | 107 | 98.3 | 106
COc1cc([C@@H]2c3cc4c(cc3[C@@H](O[C@@H]3O[C@@H]5CO[C@@H](C)O[C@H]5[C@H](O)[C@H]3O)[C@H]3COC(=O)[C@H]23)OCO4)cc(OC)c1OP(=O)(O)O [etoposide-phosphate] | 0.3 | 0 | 10 | 5 | 0 | > 10 | > 10 | 0.478 | 1.49 | > 10 | 93.3 | 97.6 | 92.7 | 86.7 | 88.3 | 81.7 | 92.6 | 91.9 | 102 | 107 | 88.6 | 86.8 | 85.4 | 59.7 | 29.5 | 107 | 106 | 98.3 | 85.7 | 47.1 | 95.1 | 104 | 94.9 | 99.7 | 108
C[C@@H](O)[C@H]1C(=O)N2C(C(=O)O)=C([C@H]3CCCO3)S[C@H]12 [faropenem] | 0 | 0 | 0 | 0 | 0 | > 10 | > 10 | > 10 | > 10 | > 10 | 97.2 | 99.5 | 102 | 96.8 | 97.1 | 95 | 91 | 101 | 100 | 95 | 103 | 99.4 | 104 | 103 | 98.7 | 106 | 96.5 | 99.6 | 98 | 105 | 101 | 101 | 94.6 | 96.6 | 98.8
CN1CC(=O)N=C1NC(=O)Nc1cccc(Cl)c1 [fenobam] | 0 | 0 | 0 | 0 | 0 | > 10 | > 10 | > 10 | > 10 | > 10 | 100 | 97 | 99.5 | 100 | 101 | 93.1 | 94.4 | 90.1 | 103 | 97.7 | 110 | 99.4 | 112 | 97 | 103 | 102 | 101 | 100 | 105 | 97.1 | 96.6 | 106 | 98.2 | 102 | 98.3
CC(=O)O[C@]1(C(C)=O)CC[C@H]2[C@@H]3C[C@H](C)C4=CC(=O)C=C[C@]4(C)[C@@]3(F)[C@@H](O)C[C@@]21C [fluorometholone-acetate] | 0 | 0.1 | 0 | 0 | 0 | > 10 | > 10 | > 10 | > 10 | > 10 | 93.5 | 98.3 | 93.9 | 95.7 | 90.4 | 99.9 | 109 | 99.1 | 104 | 86.6 | 102 | 95.6 | 101 | 92.7 | 89.7 | 103 | 100 | 97.8 | 106 | 98.9 | 105 | 103 | 99.3 | 98.5 | 96.2
Oc1cc2c(cc1O)[C@@H]1c3ccc(O)c(O)c3OC[C@]1(O)C2 [hematoxylin] | 0 | 0 | 0 | 0 | 0 | > 10 | > 10 | > 10 | > 10 | > 10 | 95.2 | 99.3 | 92.7 | 95.5 | 102 | 98.4 | 89.9 | 93 | 108 | 90 | 104 | 100 | 96.4 | 104 | 105 | 97.1 | 103 | 92.4 | 110 | 96.1 | 98.5 | 93.5 | 99.2 | 103 | 91.1
Fc1ccc2c(CCNCc3cccc(OCC(F)(F)C(F)F)c3)c[nH]c2c1 [idalopirdine] | 0.5 | 0 | 0 | 0 | 0 | > 10 | > 10 | > 10 | > 10 | > 10 | 101 | 95.2 | 98.7 | 95.2 | 84.9 | 96.3 | 97.5 | 91.5 | 87.1 | 109 | 97.5 | 93.7 | 99.2 | 94.8 | 88.2 | 90.3 | 102 | 91.4 | 101 | 99.7 | 95.3 | 97 | 99.7 | 95.4 | 96.7
C[C@@H](O)[C@H]1C(=O)N2C(C(=O)O)=C(SCCNC=N)C[C@H]12 [imipenem] | 0 | 0 | 0 | 0 | 0 | > 10 | > 10 | > 10 | > 10 | > 10 | 97.9 | 102 | 89.2 | 100 | 110 | 97.2 | 98.4 | 98.2 | 92.6 | 106 | 98.7 | 98.5 | 96.2 | 100 | 107 | 88 | 87.6 | 107 | 86.3 | 93.4 | 99.1 | 98.2 | 102 | 97.4 | 97.2
N#CCC1(n2cc(-c3ncnc4[nH]ccc34)cn2)CN(C2CCN(C(=O)c3ccnc(C(F)(F)F)c3F)CC2)C1 [itacitinib] | 0 | 0 | 0 | 0 | 0 | > 10 | > 10 | > 10 | > 10 | > 10 | 100 | 96.1 | 98.3 | 100 | 98.5 | 101 | 98.6 | 97.2 | 132 | 90.1 | 95.3 | 98.9 | 95 | 96.1 | 91.6 | 111 | 104 | 101 | 93.6 | 90.4 | 98.6 | 91 | 97.5 | 95.8 | 96
NC[C@H]1O[C@H](O[C@H]2[C@H](O)[C@@H](O[C@H]3O[C@H](CO)[C@@H](O)[C@H](N)[C@H]3O)[C@H](N)C[C@@H]2N)[C@H](O)[C@@H](O)[C@@H]1O [kanamycin] | 0 | 0 | 0 | 0 | 0 | > 10 | > 10 | > 10 | > 10 | > 10 | 109 | 106 | 99.3 | 99 | 102 | 94.3 | 93.1 | 88.1 | 89.3 | 96.1 | 109 | 88.9 | 88 | 96.5 | 98.5 | 100 | 104 | 101 | 114 | 95.2 | 102 | 102 | 96.1 | 98.3 | 98.2
CC(Oc1c(Cl)cccc1Cl)C1=NCCN1 (stereo not given) [lofexidine] | 0 | 0 | 0 | 0 | 0 | > 10 | > 10 | > 10 | > 10 | > 10 | 101 | 101 | 95.7 | 103 | 103 | 100 | 106 | 101 | 93.8 | 95.6 | 90.7 | 105 | 104 | 90.7 | 100 | 99.3 | 108 | 87.6 | 103 | 94.6 | 103 | 106 | 100 | 100 | 99.6
O=C(NC(=O)c1c(F)cccc1F)Nc1cc(Cl)c(OC(F)(F)C(F)C(F)(F)F)cc1Cl (stereo not given) [lufenuron] | 0 | 0 | 0 | 0 | 0 | > 10 | > 10 | > 10 | > 10 | > 10 | 99.2 | 108 | 98.3 | 110 | 100 | 100 | 95.1 | 93.8 | 96.8 | 95 | 98.6 | 94.3 | 109 | 101 | 101 | 95.4 | 98.9 | 92.1 | 83.2 | 95.3 | 100 | 95.1 | 96.7 | 98.4 | 99.7
